According to patent US11246882B2, “Pharmaceutical composition for inhibiting resistance against anticancer drugs of patient suffering from ovarian cancer comprising NAG-1 inhibitor as active ingredient” (PUSAN NATIONAL UNIVERSITY INDUSTRY-UNIVERSITY COOPERATION …, priority 2015, dated 2022):

Assays:
[1] = system: ovarian cancer stem cells (R182); test: Cell viability by MTT assay: resistance of ovarian cancer stem cells against Taxol under NAG-1 regulation; format: cell-based, Human
Description: Human epithelial ovarian cancer stem cell line R182 cells were provided by Prof. Gil Mor (Yale University School of Medicine). A2780 cells were purchased from American Type Culture Collection (Manassas, Va.). Cells were maintained in RPMI 1640 medium (supplemented with 20% [v/v] heat-inactivated FBS, 50 U/ml penicillin, and […] streptomycin) in a 5% CO2 humidified incubator at 37° C. Cell numbers were counted by trypan blue (Sigma-Aldrich, St. Louis, Mo., USA) using a hemocytometer according to dye exclusion assay.
200 μl of the cultured cancer cells were seeded into a 96-well plate to have 5×10^3 cells/well, and cultured for 24 hours at a temperature of 37° C. in a wet incubator with carbon 5% and […] supplied thereto. Then, an empty vector (pSilencer 4.1-CMV-neo vector, Ambion, USA) and shRNA specific to NAG-1 were added to the ovarian cancer cells, cultured for 48 hours, and treated for 48 hours with an anticancer drug, Taxol, according to the concentrations. 50 μl of MTT solution (1 mg/ml) in PBS was added to each well, and cultured again for 6 hours. After the formation of formazan was confirmed, the MTT solution was completely removed. […] Afterwards, a micro plate reader (Molecular Devices, USA) was used to measure absorbance at 560 nm. Accordingly, the relative cell viability was calculated when cells that were not treated with an anticancer drug was considered as 100%. […]

ovarian cancer cells = test: Treatment of ovarian cancer cells with the anticancer drug Taxol; format: cell-based; conditions: ovarian cancer cells other than stem cells

## shRNA specific to NAG-1: shRNA having SEQ ID NO: 1 (ACAUGCACGCGCAGAUCAA), inhibitor of expression of NAG-1 protein; expression vector
[1]; R182 cells, shRNA added, cultured 48 hours, then Taxol 48 hours, compared with empty vector (FIG. 5)
  resistance against the anticancer drug (Taxol), amount of living cells by MTT assay: the resistance against the anticancer drug was reduced

## CC(=O)O[C@H]1C(=O)[C@@]2(C)[C@H]([C@H](OC(=O)c3ccccc3)[C@]3(O)C[C@H](OC(=O)[C@H](O)[C@@H](NC(=O)c4ccccc4)c4ccccc4)C(C)=C1C3(C)C)[C@]1(OC(C)=O)CO[C@@H]1C[C@@H]2O [Taxol]
[1]; ovarian cancer stem cells
  cell death of ovarian cancer stem cells on treatment with anticancer drug: ovarian cancer stem cells did not die
Ovarian cancer cells
  cell death of ovarian cancer cells on treatment with anticancer drug: ovarian cancer cells die
